The term IC50 denotes the concentration needed to halve the response being measured.

“Also recorded” adds a separate entry of the source. Where two headings read alike, the source gives them in different places.

The values that follow come from paper PMC10518421, “Zebrafish as model system for the biological characterization of CK1 inhibitors” (Frontiers in Pharmacology, 2023).

One data set deals with CK1δ. The note with it: prior to standardization, ref García-Reyes et al., 2018; cited from earlier work.
In a further data set the test system is zebrafish embryos. The note with it: for phenotype of treated zebrafish embryos: 24 to 72 hpf (48 h); for dose dependence of phenotype: 5, 10, 20 and 40 µM, 48 h of incubation.
The target of the next data set is CK1δ (TV1) (Homo sapiens, UniProt P48730). The data set is described as follows: initial IC50 determination in in vitro kinase assays, prior to standardization. The data set is classed as biochemical. The note with it: not published. The procedure:
The SMIs used in this study (summarized in Supplementary Table S2) were selected based on their inhibitory capacity toward CK1δ in vitro, whereby a broad range of inhibitors with varying efficiency were included. The determination of IC50-values was conducted prior to the standardization workflow establishment. Zebrafish embryos treated with 20 µM of the respective compound were phenotypically analyzed.
Supplementary Table 6: List of the inhibitors that were selected for the in vivo screening of zebrafish embryonic development. The compounds were selected based on their ability to inhibit CK1δ in in vitro kinase assays. The initial IC50-values were determined prior to the establishment of the standardized in vitro kinase assay protocol. The Supplementary Table summarizes, whether the zebrafish embryos presented an abnormal phenotype upon inhibitor treatment. The inhibitors were added to the zebrafish medium in a concentration of 20 µM.

In a further data set the target is T1, GST-humCK1δ^TV1 (Homo sapiens, UniProt P48730).
T1 construct: made in house; host or cells: E. coli Rosetta 2 (DE3)
T1 sequence (P48730 whole entry): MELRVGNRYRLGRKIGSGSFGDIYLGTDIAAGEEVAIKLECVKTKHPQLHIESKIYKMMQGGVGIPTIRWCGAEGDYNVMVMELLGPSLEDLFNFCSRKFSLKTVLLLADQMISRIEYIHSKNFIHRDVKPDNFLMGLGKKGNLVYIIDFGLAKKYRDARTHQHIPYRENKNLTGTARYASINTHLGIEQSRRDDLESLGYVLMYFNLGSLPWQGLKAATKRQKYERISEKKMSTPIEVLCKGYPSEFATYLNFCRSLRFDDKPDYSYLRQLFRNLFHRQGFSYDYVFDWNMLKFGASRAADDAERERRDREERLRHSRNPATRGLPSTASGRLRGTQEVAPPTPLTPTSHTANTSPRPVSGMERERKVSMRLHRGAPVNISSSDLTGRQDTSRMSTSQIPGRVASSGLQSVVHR
Briefly: in vitro kinase assay, α-casein phosphorylation with [γ-32P]-ATP, standard conditions. Format: biochemical. The note with it: 20 µM inhibitor, normalized to DMSO control. Here is the method:
(§1) Each in vitro kinase reaction was performed in a total volume of 15 µL containing 25 mM Tris-HCl (pH 7.0), 10 mM MgCl2, 100 µM EDTA, 2.8 µM of the substrate α-casein and 0.4 pmol [γ-^32P]-ATP at 30°C. […] Reactions were stopped by adding 3 µL of 5x SDS loading buffer and incubating at 95°C for 5 min. Proteins were separated by SDS-PAGE and stained with Coomassie Brilliant Blue R250 (Waldeck GmbH & Co. KG, Muenster, Germany). Autoradiography visualized the incorporation of radioactively labelled γ-phosphate into the proteins. A quantitative analysis of the radioactive signal was performed by excising the proteins from dried gels and measuring phosphate incorporation via Cherenkov counting (Beckmann Scintillation Counter). For the determination of the initial velocity region, a linear regression was performed. Thereby, the number of included data-points was decreased stepwise, and the point of time with the highest maximum coefficient of determination (R ^2) was chosen as the kinase-specific standard reaction time. For determination of the maximal velocity (Vmax) and Michaelis constant (Km) of ATP, various ATP concentrations in a range from 0.5 to 250 µM were tested. Raw data was used for the calculation of enzyme velocity (V) in [pmol/min]. Then, V was plotted over substrate (ATP) concentration and fitted to the Michaelis-Menten model via GraphPad Prism 8 (GraphPad Software, La Jolla, CA, United States). According to the Michaelis-Menten curve, Km, which is the concentration of the substrate, that is needed to obtain half Vmax, was calculated. For determination of IC50 values, the scintillation data measured in cpm was transformed to pmol of transferred phosphate. The data was then transformed logarithmically (X = log(X)), normalized to DMSO (100%) and zero (0%) before fitting to sigmoidal dose-response curves with variable slope with nonlinear regression using GraphPad Prism 7.
(§2) In compliance with the established standard conditions the kinase assays were performed in the presence of 20 µM of the respective inhibitor (Figure 7).
(§3) Next, in vitro kinase assays were performed in absence and presence of the respective SMI at different concentrations (ranging from 13 to 26667 nM). The kinase activity of the inhibitor-treated samples was normalized to the DMSO-control and plotted against the inhibitor concentration (Figure 10).

Another data set addresses T2, GST-CK1ε (Homo sapiens, UniProt P49674).
T2 construct: made in house; host or cells: E. coli Rosetta 2 (DE3)
The description is as above. Format: biochemical. The note with it: 20 µM inhibitor, normalized to DMSO control. Here is the method: as §1, §2

In another data set the test system is His-DrCK1ε. The description is as above. Format: biochemical, zebrafish (Danio rerio). The note with it: 20 µM inhibitor, normalized to DMSO control. Here is the method:
as §1, §2

The target in the next data set is T3, His-DrCK1δA (Danio rerio, UniProt Q7T2E3).
T3 construct: made in house; host or cells: E. coli Rosetta 2 (DE3)
T3 sequence (Q7T2E3 1-403): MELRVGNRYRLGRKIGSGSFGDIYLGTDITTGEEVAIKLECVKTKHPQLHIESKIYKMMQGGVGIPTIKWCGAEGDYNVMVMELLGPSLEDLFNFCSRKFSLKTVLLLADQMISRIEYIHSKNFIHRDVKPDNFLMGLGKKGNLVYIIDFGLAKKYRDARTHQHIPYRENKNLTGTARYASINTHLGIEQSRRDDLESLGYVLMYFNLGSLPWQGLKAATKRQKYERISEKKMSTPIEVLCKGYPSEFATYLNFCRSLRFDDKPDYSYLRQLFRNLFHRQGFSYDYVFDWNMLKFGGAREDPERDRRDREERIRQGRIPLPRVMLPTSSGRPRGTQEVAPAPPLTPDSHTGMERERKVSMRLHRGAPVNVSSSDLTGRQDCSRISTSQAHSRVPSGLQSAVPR
Described as above. The note with it: 20 µM inhibitor, normalized to DMSO control. The data set is classed as biochemical, zebrafish (Danio rerio). The procedure:
as §1, §2, §3

A further data set has as its target T4, His-DrCK1δB (Danio rerio, UniProt Q6P3K7).
T4 construct: made in house; host or cells: E. coli Rosetta 2 (DE3)
T4 sequence (Q6P3K7 1-409): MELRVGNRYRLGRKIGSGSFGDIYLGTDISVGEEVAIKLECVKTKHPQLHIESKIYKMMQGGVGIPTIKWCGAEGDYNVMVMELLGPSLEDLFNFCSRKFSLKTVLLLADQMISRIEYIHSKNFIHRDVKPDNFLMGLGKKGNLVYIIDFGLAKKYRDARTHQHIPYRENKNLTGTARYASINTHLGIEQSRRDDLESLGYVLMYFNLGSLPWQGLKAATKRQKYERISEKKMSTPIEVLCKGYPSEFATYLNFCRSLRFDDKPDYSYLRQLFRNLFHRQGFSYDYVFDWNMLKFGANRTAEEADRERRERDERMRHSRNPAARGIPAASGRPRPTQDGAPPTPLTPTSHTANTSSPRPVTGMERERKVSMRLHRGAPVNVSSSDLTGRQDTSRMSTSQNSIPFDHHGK
Described as above. The data set is classed as biochemical, zebrafish (Danio rerio). The note with it: 20 µM inhibitor, normalized to DMSO control. Here is the method: as §1, §2, §3

A further data set concerns csnk1db (CK1δB). The data set is described as follows: morpholino knockdown in zebrafish embryos, phenotype. The data set is classed as in vivo, zebrafish (D. rerio). The note with it: 300 µM injected, 72 hpf. The text has this:
The TüAB wildtype strain was used for all experiments. […] DMSO served as solvent control. […] Embryos were immobilized in 2.5% methylcellulose.

CK1δ (TV1), sequence (P48730 whole entry): as the sequence (P48730 whole entry) above
T2 sequence (P49674 whole entry): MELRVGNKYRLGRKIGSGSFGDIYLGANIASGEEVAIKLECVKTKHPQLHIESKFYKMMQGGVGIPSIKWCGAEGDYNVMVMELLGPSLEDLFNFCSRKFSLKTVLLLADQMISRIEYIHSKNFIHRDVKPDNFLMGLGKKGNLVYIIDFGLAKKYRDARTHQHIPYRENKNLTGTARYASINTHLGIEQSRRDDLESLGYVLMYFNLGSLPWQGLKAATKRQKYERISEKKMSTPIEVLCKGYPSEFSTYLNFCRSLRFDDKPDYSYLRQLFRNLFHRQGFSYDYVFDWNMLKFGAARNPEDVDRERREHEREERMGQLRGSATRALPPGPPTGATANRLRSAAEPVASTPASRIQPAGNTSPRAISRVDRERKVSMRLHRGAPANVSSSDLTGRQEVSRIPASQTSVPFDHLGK

For `O=C(CSc1nc2c(c(=O)n1Cc1ccc(C(F)(F)F)cc1)SCC2)Nc1nc2ccc(C(F)(F)F)cc2s1` [G1-3], the IC50 with CK1δ is 330 nM. In addition, in the data set on zebrafish embryos (zebrafish, in vivo), the Phenotypic changes result is reported as “None observed” and the “Phenotypic changes (with severity) after treatment of zebrafish embryos with 20 µM inhibitor” value (from here on “Phenotypic changes … with 20 µM inhibitor”) is on record as “No”.
As to `O=C(CSc1nc2c(c(=O)n1-c1ccccc1)SCC2)Nc1nc2ccc(C(F)(F)F)cc2s1` [G1-1], in the data set with CK1δ, the IC50 is 660 nM. In addition, in the data set with zebrafish embryos (zebrafish, in vivo), the Phenotypic changes entry is given as “Mild bradycardia” and the “Phenotypic changes … with 20 µM inhibitor” value is “Yes (mild)”.
Regarding `COc1ccc(-n2c(SCC(=O)Nc3nc4ccc(C(F)(F)F)cc4s3)nccc2=O)cc1` [G2-5, 2-((3-(4-Methoxyphenyl)-4-oxo-3,4-dihydropyrimidin-2-yl)thio)-N-(6-(trifluormethyl)benzo[d]thiazol-2-yl)acetamid], 840 nM corresponded to half-maximal inhibition on CK1δ (TV1) (IC50). For the same compound, the “Phenotypic changes … with 20 µM inhibitor” value in the data set on zebrafish embryos (20 µM in medium, from 24 hpf) is given as “No”. Also, in the data set on zebrafish embryos (20 µM), the “phenotype of treated zebrafish embryos” value is “no effect on zebrafish development or heart function; also recorded: did not show a phenotypic effect”.
Take `COc1ccccc1-n1c(SCC(=O)Nc2nc3ccc(C(F)(F)F)cc3s2)nccc1=O` [G2-4, 2-((3-(2-Methoxyphenyl)-4-oxo-3,4-dihydropyrimidin-2-yl)thio)-N-(6-(trifluormethyl)benzo[d]thiazol-2-yl)acetamid]: the “mean residual kinase activity ± SD” value at GST-humCK1δ^TV1 is recorded as 3.2 ± 0.3%; at GST-CK1ε, 8.6 ± 1.6%; in the data set with His-DrCK1ε, 11.3 ± 3.3%; on His-DrCK1δA, 7.6 ± 1.2%; at His-DrCK1δB, 6.3 ± 0.8%. For the same compound, on CK1δ (TV1), the IC50 came to 970 nM. The “phenotype of treated zebrafish embryos” value is “mild phenotype with a minor blood congestion” in the data set with zebrafish embryos (5 µM); “weakly beating ventricle and a pericardial edema” in the data set on zebrafish embryos (10 µM); “strong cardiac phenotype, with blood congestion, a strong bradycardia and partially total loss of heart beat; also recorded: severe effects on the embryonic development, with strong bradycardia and blood congestion; also recorded: pericardial edema; also recorded: almost not beating” in the data set on zebrafish embryos (20 µM); “bradycardia, a loss of ventricular beating and as a result pericardial edema” with zebrafish embryos (40 µM). Besides, the “Phenotypic changes … with 20 µM inhibitor” value in the data set with zebrafish embryos (20 µM in medium, from 24 hpf) is given as “Yes (severe)”. Moreover, the “dose dependence of phenotype” value in the data set with zebrafish embryos was “increasingly severe cardiac malfunctions with increasing compound concentrations”.
Take `COc1cccc(-n2c(SCC(=O)Nc3nc4ccc(C(F)(F)F)cc4s3)nccc2=O)c1` [G2-6, 2-((3-(3-Methoxyphenyl)-4-oxo-3,4-dihydropyrimidin-2-yl)thio)-N-(6-(trifluormethyl)benzo[d]thiazol-2-yl)acetamid]: the “mean residual kinase activity ± SD” value amounted to 9.1 ± 1.6% at GST-humCK1δ^TV1; 18.0 ± 4.8% on GST-CK1ε; 25.5 ± 10.7% in the data set with His-DrCK1ε; 11.9 ± 3.2% on His-DrCK1δA; 10.0 ± 1.3% on His-DrCK1δB. Besides, the IC50 at CK1δ (TV1) was 1400 nM. Further, the “phenotype of treated zebrafish embryos” value is “cardiac phenotype, with bradycardia and blood congestion, resulting in cardiac edema” in the data set with zebrafish embryos (5 µM); “blood congestion and pericardial edema” in the data set with zebrafish embryos (10 µM); “strong cardiac phenotype, with blood congestion, a strong bradycardia and partially total loss of heart beat; also recorded: severe effects on the embryonic development, with strong bradycardia and blood congestion; also recorded: blood congestions; also recorded: pericardial edema” in the data set on zebrafish embryos (20 µM); “bradycardia, a loss of ventricular beating and as a result pericardial edema” in the data set with zebrafish embryos (40 µM). For the same compound, the “Phenotypic changes … with 20 µM inhibitor” value in the data set on zebrafish embryos (20 µM in medium, from 24 hpf) is “Yes (severe)”. Moreover, the “dose dependence of phenotype” value in the data set on zebrafish embryos is “increasingly severe cardiac malfunctions with increasing compound concentrations”.
Regarding “csnk1db morpholino: morpholino-modified antisense oligonucleotide targeting the translational start site of csnk1db, 5′-CTGTTTCCAACTCGTAGCTCCATTG-3′ (all phosphorodiamidate morpholino (PMO))”, the “phenotype of morpholino injected embryos” value with csnk1db (CK1δB) was “reduced heart function resulting in blood congestion”; in the data set on csnk1db (CK1δB) (listed as csnk1db), “cardiac malfunction; also recorded: slightly curved body axis”; in the data set on csnk1db (CK1δB) (listed as csnk1db Morpholino) it was “reduced heart function”.
